Experimental data: patent US8383655B2, “Modulators of pharmacokinetic properties of therapeutics” (Gilead Sciences, Inc., priority 2006, dated 2013)

System: HIV-1 strain IIIB
Experiment: Anti-HIV-1 cell culture assay (EC50), XTT cytopathic effect
Format: cell-based
Settings: Human immunodeficiency virus 1, 120 h; MT2 cells infected with wild-type HIV-1 IIIB, 5 days; read-out: protease inhibition activity represented by HIV EC50

EC50: > 20 µM
Compound: CC(C)c1nc(CN(C)C(=O)N[C@@H](CCN2CCOCC2)C(=O)N[C@H](CC[C@H](Cc2ccccc2)NC(=O)OCc2cncs2)Cc2ccccc2)cs1 [Example S]
